Test results taken from ChEMBL document CHEMBL3132769, “Fragment growing to retain or alter the selectivity of anchored kinase hinge-binding fragments” (Medchemcomm, 2014).

How the values were obtained:
[1] = tested on: Tyrosine-protein kinase ABL1 (Homo sapiens), P00519 [H396P]; test: Inhibition of human truncated ABL H396P mutant expressed in baculovirus assessed as substrate phosphorylation using fluorescence-labelled peptides as substrate at 8 uM after 90 mins by microfluidic peptide phosphorylation assay
[2] = target: Ribosomal protein S6 kinase alpha-2 (Homo sapiens) (UniProt Q15349); test: Inhibition of human full length RSK3 expressed in baculovirus assessed as substrate phosphorylation using fluorescence-labelled peptides as substrate at 0.2 uM after 90 mins by microfluidic peptide phosphorylation assay
[3] = target: Casein kinase I isoform alpha (Homo sapiens) (UniProt P48729); test: Inhibition of human full length CSNK1A1 expressed in baculovirus assessed as substrate phosphorylation using fluorescence-labelled peptides as substrate at 0.2 uM after 90 mins by microfluidic peptide phosphorylation assay
[4] = target: Glycogen synthase kinase-3 beta (Homo sapiens) (UniProt P49841); test: Inhibition of human full length GSK-3 beta expressed in baculovirus assessed as substrate phosphorylation using fluorescence-labelled peptides as substrate at 2 uM after 90 mins by microfluidic peptide phosphorylation assay
[5] = target: Ribosomal protein S6 kinase alpha-4 (Homo sapiens) (UniProt O75676); test: Inhibition of human full length MSK2 expressed in baculovirus assessed as substrate phosphorylation using fluorescence-labelled peptides as substrate at 2 uM after 90 mins by microfluidic peptide phosphorylation assay
[6] = target: T1, Mitogen-activated protein kinase 12 (Homo sapiens) (UniProt P53778); test: Inhibition of human full length p38 gamma expressed in Escherichia coli cell assessed as substrate phosphorylation using fluorescence-labelled peptides as substrate at […] after 90 mins by microfluidic peptide phosphorylation assay
T1 sequence (whole entry): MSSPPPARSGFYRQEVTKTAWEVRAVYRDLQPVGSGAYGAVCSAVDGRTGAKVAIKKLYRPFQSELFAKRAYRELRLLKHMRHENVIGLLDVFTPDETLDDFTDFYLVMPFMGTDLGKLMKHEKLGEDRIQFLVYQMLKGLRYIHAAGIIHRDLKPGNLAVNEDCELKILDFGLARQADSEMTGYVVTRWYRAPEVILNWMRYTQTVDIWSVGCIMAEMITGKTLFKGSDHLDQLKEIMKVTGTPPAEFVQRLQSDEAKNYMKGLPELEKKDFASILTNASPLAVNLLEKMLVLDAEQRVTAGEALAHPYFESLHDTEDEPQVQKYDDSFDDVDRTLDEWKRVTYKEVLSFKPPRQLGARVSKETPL

[7] = target: Tyrosine-protein kinase BTK (Homo sapiens) (UniProt Q06187); test: Inhibition of human full length BTK expressed in baculovirus assessed as substrate phosphorylation using fluorescence-labelled peptides as substrate at 9 uM after 90 mins by microfluidic peptide phosphorylation assay
[8] = target: Protein kinase C theta type (Homo sapiens) (UniProt Q04759); test: Inhibition of human truncated PKC theta expressed in baculovirus assessed as substrate phosphorylation using fluorescence-labelled peptides as substrate at 0.1 uM after 90 mins by microfluidic peptide phosphorylation assay
[9] = target: Tyrosine-protein kinase ABL1 (Homo sapiens) (UniProt P00519); test: Inhibition of human full-length ABL expressed in baculovirus assessed as substrate phosphorylation using fluorescence-labelled peptides as substrate at 95 uM after 90 mins by microfluidic peptide phosphorylation assay
[10] = target: Mitogen-activated protein kinase 1 (Homo sapiens) (UniProt P28482); test: Inhibition of human full length ERK2 expressed in Escherichia coli cell assessed as substrate phosphorylation using fluorescence-labelled peptides as substrate at 95 uM after 90 mins by microfluidic peptide phosphorylation assay
[11] = target: T2, Serine/threonine-protein kinase Sgk3 (Homo sapiens) (UniProt Q96BR1); test: Inhibition of human full length SGK3 expressed in baculovirus assessed as substrate phosphorylation using fluorescence-labelled peptides as substrate at 70 uM after 90 mins by microfluidic peptide phosphorylation assay
T2 sequence (whole entry): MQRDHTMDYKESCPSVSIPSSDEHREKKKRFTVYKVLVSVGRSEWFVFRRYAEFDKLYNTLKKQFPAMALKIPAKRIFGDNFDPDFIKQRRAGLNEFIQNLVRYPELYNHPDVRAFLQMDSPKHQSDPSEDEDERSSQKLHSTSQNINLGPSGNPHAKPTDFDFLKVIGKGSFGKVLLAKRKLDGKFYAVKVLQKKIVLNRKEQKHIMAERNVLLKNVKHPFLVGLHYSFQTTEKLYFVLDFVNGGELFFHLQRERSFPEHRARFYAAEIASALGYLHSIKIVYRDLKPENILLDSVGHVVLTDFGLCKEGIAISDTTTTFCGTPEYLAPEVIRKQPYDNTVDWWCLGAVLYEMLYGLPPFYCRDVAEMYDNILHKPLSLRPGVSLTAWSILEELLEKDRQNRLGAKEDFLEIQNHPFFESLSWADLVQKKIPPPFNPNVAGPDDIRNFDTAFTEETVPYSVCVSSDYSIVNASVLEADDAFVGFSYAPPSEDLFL

[12] = target: T3, Serine/threonine-protein kinase BRSK2 (Homo sapiens) (UniProt Q8IWQ3); test: Inhibition of human truncated BRSK2 expressed in baculovirus assessed as substrate phosphorylation using fluorescence-labelled peptides as substrate at 70 uM after 90 mins by microfluidic peptide phosphorylation assay
T3 sequence (whole entry): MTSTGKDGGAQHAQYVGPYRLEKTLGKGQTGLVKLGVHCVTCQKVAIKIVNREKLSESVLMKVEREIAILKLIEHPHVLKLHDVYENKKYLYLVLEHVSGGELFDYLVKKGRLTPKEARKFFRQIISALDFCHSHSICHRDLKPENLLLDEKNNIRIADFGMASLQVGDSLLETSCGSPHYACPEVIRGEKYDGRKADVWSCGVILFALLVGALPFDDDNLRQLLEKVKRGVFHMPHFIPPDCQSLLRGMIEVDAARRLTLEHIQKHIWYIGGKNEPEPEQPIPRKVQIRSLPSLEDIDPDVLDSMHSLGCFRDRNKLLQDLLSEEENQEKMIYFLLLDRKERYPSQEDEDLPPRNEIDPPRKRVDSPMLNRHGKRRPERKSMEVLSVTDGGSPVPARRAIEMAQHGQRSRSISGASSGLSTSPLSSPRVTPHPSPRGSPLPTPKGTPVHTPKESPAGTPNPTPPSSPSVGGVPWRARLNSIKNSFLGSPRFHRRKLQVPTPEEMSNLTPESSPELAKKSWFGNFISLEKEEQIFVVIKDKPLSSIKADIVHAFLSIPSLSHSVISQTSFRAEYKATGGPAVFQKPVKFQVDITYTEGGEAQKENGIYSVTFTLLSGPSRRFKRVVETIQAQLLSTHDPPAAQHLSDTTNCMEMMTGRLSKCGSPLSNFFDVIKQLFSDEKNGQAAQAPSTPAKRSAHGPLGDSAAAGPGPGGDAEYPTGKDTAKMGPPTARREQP

[13] = target: Receptor-type tyrosine-protein kinase FLT3 (Homo sapiens) (UniProt P36888); test: Inhibition of human FLT3 catalytic domain expressed in baculovirus assessed as substrate phosphorylation using fluorescence-labelled peptides as substrate at 420 uM after 90 mins by microfluidic peptide phosphorylation assay
Sequence of Receptor-type tyrosine-protein kinase FLT3 (Homo sapiens) (P36888 whole entry, the tested form may be a part): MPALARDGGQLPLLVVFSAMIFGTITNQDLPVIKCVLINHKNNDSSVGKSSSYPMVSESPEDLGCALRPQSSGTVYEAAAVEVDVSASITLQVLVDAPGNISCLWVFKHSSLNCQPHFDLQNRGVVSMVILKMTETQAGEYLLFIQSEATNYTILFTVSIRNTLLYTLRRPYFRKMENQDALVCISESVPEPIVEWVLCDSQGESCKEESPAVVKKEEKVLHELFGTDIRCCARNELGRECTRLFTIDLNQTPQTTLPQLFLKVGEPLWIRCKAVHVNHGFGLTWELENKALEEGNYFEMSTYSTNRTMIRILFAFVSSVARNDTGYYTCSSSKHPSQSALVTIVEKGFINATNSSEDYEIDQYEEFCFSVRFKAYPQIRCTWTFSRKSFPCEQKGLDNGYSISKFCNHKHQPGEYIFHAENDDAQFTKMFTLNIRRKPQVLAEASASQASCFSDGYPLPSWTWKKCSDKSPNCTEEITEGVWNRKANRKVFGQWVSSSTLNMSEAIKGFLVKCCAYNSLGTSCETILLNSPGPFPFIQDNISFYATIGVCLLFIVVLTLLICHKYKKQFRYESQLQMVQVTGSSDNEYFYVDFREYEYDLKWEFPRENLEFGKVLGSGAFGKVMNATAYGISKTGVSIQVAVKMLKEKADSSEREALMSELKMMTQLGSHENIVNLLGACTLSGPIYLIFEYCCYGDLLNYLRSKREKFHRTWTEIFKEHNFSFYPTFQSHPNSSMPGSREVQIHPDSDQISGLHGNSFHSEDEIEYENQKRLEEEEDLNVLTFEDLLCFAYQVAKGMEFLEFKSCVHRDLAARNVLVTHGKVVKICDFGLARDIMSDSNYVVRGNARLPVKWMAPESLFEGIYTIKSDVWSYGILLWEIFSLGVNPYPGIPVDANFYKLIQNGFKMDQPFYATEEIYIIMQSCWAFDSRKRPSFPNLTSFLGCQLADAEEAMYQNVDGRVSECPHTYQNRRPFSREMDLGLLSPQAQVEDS

Sequence of Tyrosine-protein kinase BTK (Homo sapiens) (Q06187 whole entry, the tested form may be a part): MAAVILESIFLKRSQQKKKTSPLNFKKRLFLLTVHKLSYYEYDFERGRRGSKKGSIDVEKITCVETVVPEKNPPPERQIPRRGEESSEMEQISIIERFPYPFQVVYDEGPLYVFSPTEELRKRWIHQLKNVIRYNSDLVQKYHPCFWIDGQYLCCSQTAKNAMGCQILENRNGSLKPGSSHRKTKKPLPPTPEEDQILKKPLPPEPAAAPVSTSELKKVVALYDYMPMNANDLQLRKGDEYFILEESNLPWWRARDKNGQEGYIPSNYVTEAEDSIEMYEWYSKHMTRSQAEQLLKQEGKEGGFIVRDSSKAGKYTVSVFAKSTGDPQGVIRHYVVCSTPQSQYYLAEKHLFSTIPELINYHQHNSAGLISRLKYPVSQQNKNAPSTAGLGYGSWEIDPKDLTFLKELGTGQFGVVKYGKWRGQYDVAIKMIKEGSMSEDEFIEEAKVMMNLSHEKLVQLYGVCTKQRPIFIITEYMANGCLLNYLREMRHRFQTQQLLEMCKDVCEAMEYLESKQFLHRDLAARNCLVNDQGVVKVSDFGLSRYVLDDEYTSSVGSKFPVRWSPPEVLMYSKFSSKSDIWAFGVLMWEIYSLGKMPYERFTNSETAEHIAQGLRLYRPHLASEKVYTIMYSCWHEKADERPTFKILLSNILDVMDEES
Sequence of Ribosomal protein S6 kinase alpha-4 (Homo sapiens) (O75676 whole entry, looked up): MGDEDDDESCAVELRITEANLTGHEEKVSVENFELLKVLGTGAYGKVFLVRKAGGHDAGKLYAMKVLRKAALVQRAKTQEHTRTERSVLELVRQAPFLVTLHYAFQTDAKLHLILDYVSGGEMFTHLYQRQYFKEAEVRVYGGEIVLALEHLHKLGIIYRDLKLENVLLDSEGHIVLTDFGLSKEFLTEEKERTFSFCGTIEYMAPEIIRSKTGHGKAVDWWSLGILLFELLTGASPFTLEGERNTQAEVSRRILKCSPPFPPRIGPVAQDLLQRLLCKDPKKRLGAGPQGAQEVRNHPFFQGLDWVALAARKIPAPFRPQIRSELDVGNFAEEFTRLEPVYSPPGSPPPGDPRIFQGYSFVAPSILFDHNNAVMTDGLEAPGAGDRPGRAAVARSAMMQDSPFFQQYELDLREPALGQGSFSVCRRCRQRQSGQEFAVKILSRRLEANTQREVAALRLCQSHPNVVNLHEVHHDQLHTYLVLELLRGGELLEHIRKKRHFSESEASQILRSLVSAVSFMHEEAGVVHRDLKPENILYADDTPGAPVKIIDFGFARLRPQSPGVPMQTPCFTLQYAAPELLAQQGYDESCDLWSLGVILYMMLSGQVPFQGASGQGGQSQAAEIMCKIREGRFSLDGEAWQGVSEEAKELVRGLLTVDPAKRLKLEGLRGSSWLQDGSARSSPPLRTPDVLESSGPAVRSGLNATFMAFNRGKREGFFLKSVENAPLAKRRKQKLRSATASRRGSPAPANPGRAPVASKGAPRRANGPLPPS
Sequence of Casein kinase I isoform alpha (Homo sapiens) (P48729 2-337 limits assumed): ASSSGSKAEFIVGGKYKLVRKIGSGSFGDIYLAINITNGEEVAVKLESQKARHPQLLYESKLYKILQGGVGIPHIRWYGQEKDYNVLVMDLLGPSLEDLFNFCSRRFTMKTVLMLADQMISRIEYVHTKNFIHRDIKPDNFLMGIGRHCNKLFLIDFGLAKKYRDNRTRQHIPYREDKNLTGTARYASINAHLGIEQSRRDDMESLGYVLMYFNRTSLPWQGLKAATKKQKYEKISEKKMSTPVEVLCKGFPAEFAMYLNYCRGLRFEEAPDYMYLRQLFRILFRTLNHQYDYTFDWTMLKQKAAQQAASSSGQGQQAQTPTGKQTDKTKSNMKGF
Sequence of Protein kinase C theta type (Homo sapiens) (Q04759 whole entry, looked up, the tested form may be a part): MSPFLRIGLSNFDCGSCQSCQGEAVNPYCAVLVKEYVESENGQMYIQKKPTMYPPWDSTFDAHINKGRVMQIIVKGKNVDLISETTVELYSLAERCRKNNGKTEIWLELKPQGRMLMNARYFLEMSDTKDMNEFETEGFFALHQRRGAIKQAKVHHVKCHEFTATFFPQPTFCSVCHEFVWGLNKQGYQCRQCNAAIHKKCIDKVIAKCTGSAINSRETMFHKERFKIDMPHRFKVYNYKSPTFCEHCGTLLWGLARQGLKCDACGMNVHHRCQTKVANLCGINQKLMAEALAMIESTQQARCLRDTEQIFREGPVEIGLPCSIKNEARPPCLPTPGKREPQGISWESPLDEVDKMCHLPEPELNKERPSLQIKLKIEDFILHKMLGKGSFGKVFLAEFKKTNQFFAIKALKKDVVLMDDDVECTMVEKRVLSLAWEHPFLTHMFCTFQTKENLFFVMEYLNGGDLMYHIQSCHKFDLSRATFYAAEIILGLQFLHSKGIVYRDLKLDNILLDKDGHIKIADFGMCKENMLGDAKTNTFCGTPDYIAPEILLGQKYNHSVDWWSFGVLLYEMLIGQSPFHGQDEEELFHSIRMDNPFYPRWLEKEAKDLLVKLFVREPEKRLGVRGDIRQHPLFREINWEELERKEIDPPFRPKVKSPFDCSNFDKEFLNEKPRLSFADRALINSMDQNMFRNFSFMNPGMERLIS
Sequence of Mitogen-activated protein kinase 1 (Homo sapiens) (P28482 whole entry): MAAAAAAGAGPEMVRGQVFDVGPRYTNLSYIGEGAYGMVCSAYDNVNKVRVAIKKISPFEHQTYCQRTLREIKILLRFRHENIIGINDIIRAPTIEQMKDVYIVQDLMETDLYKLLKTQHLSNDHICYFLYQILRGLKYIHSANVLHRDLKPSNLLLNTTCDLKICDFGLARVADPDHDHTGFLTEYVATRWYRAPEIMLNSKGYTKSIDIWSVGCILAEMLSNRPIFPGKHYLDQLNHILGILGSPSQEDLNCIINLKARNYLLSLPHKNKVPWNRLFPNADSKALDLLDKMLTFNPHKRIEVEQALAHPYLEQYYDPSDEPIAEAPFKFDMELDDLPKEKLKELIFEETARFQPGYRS
Sequence of Glycogen synthase kinase-3 beta (Homo sapiens) (P49841 whole entry, looked up): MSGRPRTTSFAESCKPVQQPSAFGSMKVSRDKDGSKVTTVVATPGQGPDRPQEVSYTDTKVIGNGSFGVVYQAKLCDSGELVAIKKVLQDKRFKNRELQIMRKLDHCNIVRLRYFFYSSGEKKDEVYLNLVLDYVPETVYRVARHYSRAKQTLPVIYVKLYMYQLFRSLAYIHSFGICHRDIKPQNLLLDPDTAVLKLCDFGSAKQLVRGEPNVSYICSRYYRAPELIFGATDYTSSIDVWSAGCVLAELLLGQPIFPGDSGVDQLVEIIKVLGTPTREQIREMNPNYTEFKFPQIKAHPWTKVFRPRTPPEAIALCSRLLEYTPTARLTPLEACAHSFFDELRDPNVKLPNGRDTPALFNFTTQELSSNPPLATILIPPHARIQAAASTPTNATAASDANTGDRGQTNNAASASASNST
Sequence of Ribosomal protein S6 kinase alpha-2 (Homo sapiens) (Q15349 whole entry, canonical isoform): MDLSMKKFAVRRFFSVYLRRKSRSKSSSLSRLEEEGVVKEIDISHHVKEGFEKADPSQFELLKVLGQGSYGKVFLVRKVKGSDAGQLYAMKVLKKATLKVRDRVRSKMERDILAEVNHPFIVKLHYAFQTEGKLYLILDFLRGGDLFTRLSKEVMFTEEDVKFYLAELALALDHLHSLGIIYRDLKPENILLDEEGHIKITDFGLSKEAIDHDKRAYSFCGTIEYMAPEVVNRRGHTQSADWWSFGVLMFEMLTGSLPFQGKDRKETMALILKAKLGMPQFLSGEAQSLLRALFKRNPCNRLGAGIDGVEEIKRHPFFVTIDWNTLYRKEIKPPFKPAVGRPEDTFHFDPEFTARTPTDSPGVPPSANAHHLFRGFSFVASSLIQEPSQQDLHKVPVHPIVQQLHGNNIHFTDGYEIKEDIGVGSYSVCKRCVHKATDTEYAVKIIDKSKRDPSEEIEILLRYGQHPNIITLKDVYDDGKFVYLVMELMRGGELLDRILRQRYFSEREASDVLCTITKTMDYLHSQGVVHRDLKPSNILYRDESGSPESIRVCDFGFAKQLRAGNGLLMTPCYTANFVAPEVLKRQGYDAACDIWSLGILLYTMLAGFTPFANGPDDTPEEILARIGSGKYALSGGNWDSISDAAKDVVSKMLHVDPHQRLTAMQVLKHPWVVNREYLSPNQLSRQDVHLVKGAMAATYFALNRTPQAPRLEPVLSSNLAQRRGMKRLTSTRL

Structure (SMILES): NCC1CCN(c2ncnc3[nH]ccc23)CC1
- inhibition [1]: 20.5%

Structure (SMILES): Clc1ccc(C2(c3ccc(-c4ncnc5[nH]cnc45)cc3)CCNCC2)cc1
- inhibition [2]: 40%
- inhibition [3]: 4%

Structure (SMILES): NC1CCN(c2ncnc3[nH]ccc23)CC1
- inhibition [4]: 5%
- inhibition [5]: 15%

Structure (SMILES): COC(=O)c1cnc(Nc2cnc(C#N)cn2)cc1NCC1CCNCC1
- inhibition [6]: 1.5%

Structure (SMILES): NCC1CN(c2ncnc3[nH]c4cnccc4c23)CCO1 (stereo not drawn)
- inhibition [7]: 11%

Structure (SMILES): C[C@H](CN(C)C)Oc1nc(Nc2cc3cccc(Cl)c3cn2)cnc1C#N
- inhibition [8]: 5%

Structure (SMILES): NCCc1ccc(-c2ncnc3[nH]cnc23)cc1
- inhibition [9]: 78%
- inhibition [10]: 55.5%

Structure (SMILES): CNCc1ccc(-c2ncnc3[nH]cnc23)cc1
- inhibition [11]: 58%
- inhibition [12]: 43%

Structure (SMILES): c1nc(N2CCOCC2)c2nc[nH]c2n1
- inhibition [13]: 85.5%
